{"source": "paper PMC8989696", "about": "“Characterization of furathiocarb metabolism in in-vitro human liver microsomes and recombinant cytochrome P450 enzymes” (Toxicology Reports, 2022)", "key": {"[1]": {"system": "UDP-glucuronosyl transferase (UGT)", "assay": "Incubation with human hepatic homogenate fortified with UDP-glucuronic acid (phase II metabolites)", "assay_type": "in vitro ADME", "settings": "data not illustrated"}, "[2]": {"assay": "Furathiocarb biotransformation kinetics in individual human hepatic microsomes (10 donors)", "assay_type": "in vitro ADME", "settings": "for Km: human", "description": "The incubation mixture (ﬁnal volume of 200 µl of 0.1 M phosphate buffer) contained 50 and 100 µM furathiocarb, 0.15 mg pooled liver microsomal protein (n = 10), and 1 mM NADPH. The reaction was initiated by NADPH after a 2 min pre-incubation at + 37 °C and was incubated for 30 min at + 37 °C. The reaction stopped with ice-cold acetonitrile containing an internal standard.\nEnzyme kinetic parameters of both the microsomal samples and rCYP enzymes were measured. The incubation mixture contained furathiocarb (2.5, 10, 25, 50, 150 and 300 µM). Incubation times were 20 and 30 min for microsomal samples and rCYPs, respectively. Otherwise incubation mixtures and methods were the same as in metabolite identification. The rate of sum of furathiocarb metabolite formation was linear at least up to 0.15 mg protein/ml and 30 min incubation time in the standard experimental conditions.\nThe standard incubation mixture contained 50 and 100 µM furathiocarb, 0.15 mg pooled liver microsomal protein (n = 10), and 1 mM NADPH in a ﬁnal volume of 200 µl of 0.1 M phosphate buffer (pH 7.4). Furathiocarb was prepared once a week in dimethylsulfoxide (DMSO; ﬁnal amount in the reaction medium 1.0%). After a 2-min incubation at +37 ◦C in a shaking incubator block, the reaction was started by adding NADPH. The mixture was incubated at +37 ◦C for 30 min and the reaction was stopped with 600 µl of ice-cold acetonitrile containing an internal standard. All incubations were carried out in triplicate."}}, "note": "“And” between values parts separate entries of the source, which are not always exact repeats. Identical values can stand only once. Like-named read-outs stand apart in the source and are kept apart here."}
{"molecule": "CCCCOC(=O)N(C)SN(C)C(=O)Oc1cccc2c1OC(C)(C)C2", "note": "[furathiocarb, Furathiocarb]", "values": [{"measurement": "Phase II metabolites", "setting": "[1]", "result": "no phase II metabolites were detected"}, {"measurement": "CLint, sum of carbofuran metabolic pathway", "setting": "[2]; HLM20", "result": "310.4 µL (mg protein min)"}, {"measurement": "CLint, sum of furathiocarb oxidation pathways", "setting": "[2]; HLM20", "result": "12.63 µL (mg protein min)"}, {"measurement": "Vmax, sum of carbofuran metabolic pathway", "setting": "[2]; HLM20", "result": "19.6 ± 1.7 nmol (mg protein min)"}, {"measurement": "Vmax, sum of furathiocarb oxidation pathways", "setting": "[2]; HLM20", "result": "4.3 ± 0.8 nmol (mg protein min)"}, {"measurement": "carbofuran pathway / oxidation pathways (CLint ratio)", "setting": "[2]; HLM20", "result": 24.5, "unit": "fold"}, {"measurement": "CLint, sum of carbofuran metabolic pathway", "setting": "[2]; HLM21", "result": "339.0 µL (mg protein min)"}, {"measurement": "CLint, sum of furathiocarb oxidation pathways", "setting": "[2]; HLM21", "result": "9.22 µL (mg protein min)"}, {"measurement": "Vmax, sum of carbofuran metabolic pathway", "setting": "[2]; HLM21", "result": "22.6 ± 2.5 nmol (mg protein min)"}, {"measurement": "Vmax, sum of furathiocarb oxidation pathways", "setting": "[2]; HLM21", "result": "4.1 ± 1.1 nmol (mg protein min)"}, {"measurement": "carbofuran pathway / oxidation pathways (CLint ratio)", "setting": "[2]; HLM21", "result": 36.8, "unit": "fold"}, {"measurement": "CLint, sum of carbofuran metabolic pathway", "setting": "[2]; HLM22", "result": "619.7 µL (mg protein min)"}, {"measurement": "Vmax, sum of carbofuran metabolic pathway", "setting": "[2]; HLM22", "result": "44.5 nmol/ (mg protein min) and 44.5 ± 5.1 nmol/ (mg protein min)"}, {"measurement": "CLint, sum of carbofuran metabolic pathway", "setting": "[2]; HLM23", "result": "348.6 µL (mg protein min)"}, {"measurement": "CLint, sum of furathiocarb oxidation pathways", "setting": "[2]; HLM23", "result": "13.48 µL (mg protein min)"}, {"measurement": "Vmax, sum of carbofuran metabolic pathway", "setting": "[2]; HLM23", "result": "17.4 ± 1.6 nmol (mg protein min)"}, {"measurement": "Vmax, sum of furathiocarb oxidation pathways", "setting": "[2]; HLM23", "result": "3.5 ± 7.3 nmol (mg protein min)"}, {"measurement": "carbofuran pathway / oxidation pathways (CLint ratio)", "setting": "[2]; HLM23", "result": 25.9, "unit": "fold"}, {"measurement": "CLint, sum of carbofuran metabolic pathway", "setting": "[2]; HLM24", "result": "404.5 µL (mg protein min)"}, {"measurement": "CLint, sum of furathiocarb oxidation pathways", "setting": "[2]; HLM24", "result": "12.25 µL (mg protein min)"}, {"measurement": "Vmax, sum of carbofuran metabolic pathway", "setting": "[2]; HLM24", "result": "21.9 ± 2.1 nmol (mg protein min)"}, {"measurement": "Vmax, sum of furathiocarb oxidation pathways", "setting": "[2]; HLM24", "result": "5.1 ± 1.3 nmol (mg protein min)"}, {"measurement": "carbofuran pathway / oxidation pathways (CLint ratio)", "setting": "[2]; HLM24", "result": 33.0, "unit": "fold"}, {"measurement": "CLint, sum of carbofuran metabolic pathway", "setting": "[2]; HLM28", "result": "779.6 µL (mg protein min)"}, {"measurement": "CLint, sum of furathiocarb oxidation pathways", "setting": "[2]; HLM28", "result": "6.75 µL (mg protein min)"}, {"measurement": "Vmax, sum of carbofuran metabolic pathway", "setting": "[2]; HLM28", "result": "43.6 ± 4.7 nmol (mg protein min)"}, {"measurement": "Vmax, sum of furathiocarb oxidation pathways", "setting": "[2]; HLM28", "result": "11.5 nmol/ (mg protein min) and 11.5 ± 6.4 nmol/ (mg protein min)"}, {"measurement": "carbofuran pathway / oxidation pathways (CLint ratio)", "setting": "[2]; HLM28", "result": "115 fold and 115.4 fold"}, {"measurement": "CLint, sum of carbofuran metabolic pathway", "setting": "[2]; HLM29", "result": "378.2 µL (mg protein min)"}, {"measurement": "CLint, sum of furathiocarb oxidation pathways", "setting": "[2]; HLM29", "result": "10.73 µL (mg protein min)"}, {"measurement": "Vmax, sum of carbofuran metabolic pathway", "setting": "[2]; HLM29", "result": "24.3 ± 2.5 nmol (mg protein min)"}, {"measurement": "Vmax, sum of furathiocarb oxidation pathways", "setting": "[2]; HLM29", "result": "5.3 ± 1.4 nmol (mg protein min)"}, {"measurement": "carbofuran pathway / oxidation pathways (CLint ratio)", "setting": "[2]; HLM29", "result": 35.2, "unit": "fold"}, {"measurement": "CLint, sum of carbofuran metabolic pathway", "setting": "[2]; HLM30", "result": "701.2 µL (mg protein min)"}, {"measurement": "CLint, sum of furathiocarb oxidation pathways", "setting": "[2]; HLM30", "result": "10.99 µL (mg protein min)"}, {"measurement": "Vmax, sum of carbofuran metabolic pathway", "setting": "[2]; HLM30", "result": "18.2 ± 1.8 nmol (mg protein min)"}, {"measurement": "Vmax, sum of furathiocarb oxidation pathways", "setting": "[2]; HLM30", "result": "5.1 ± 1.3 nmol (mg protein min)"}, {"measurement": "carbofuran pathway / oxidation pathways (CLint ratio)", "setting": "[2]; HLM30", "result": "64 fold and 63.8 fold"}, {"measurement": "CLint, sum of carbofuran metabolic pathway", "setting": "[2]; HLM31", "result": "244 µl/ (mg protein min) and 244.3 µl/ (mg protein min)"}, {"measurement": "CLint, sum of furathiocarb oxidation pathways", "setting": "[2]; HLM31", "result": "7.0 µl/ (mg protein min) and 7.00 µl/ (mg protein min)"}, {"measurement": "Vmax, sum of carbofuran metabolic pathway", "setting": "[2]; HLM31", "result": "15.5 nmol/ (mg protein min) and 15.5 ± 1.1 nmol/ (mg protein min)"}, {"measurement": "Vmax, sum of furathiocarb oxidation pathways", "setting": "[2]; HLM31", "result": "1.7 nmol/ (mg protein min) and 1.7 ± 0.3 nmol/ (mg protein min)"}, {"measurement": "carbofuran pathway / oxidation pathways (CLint ratio)", "setting": "[2]; HLM31", "result": 34.9, "unit": "fold"}, {"measurement": "CLint, sum of carbofuran metabolic pathway", "setting": "[2]; HLM32", "result": "399.9 µL (mg protein min)"}, {"measurement": "CLint, sum of furathiocarb oxidation pathways", "setting": "[2]; HLM32", "result": "13.04 µL (mg protein min)"}, {"measurement": "Vmax, sum of carbofuran metabolic pathway", "setting": "[2]; HLM32", "result": "15.5 nmol/ (mg protein min) and 15.5 ± 1.4 nmol/ (mg protein min)"}, {"measurement": "Vmax, sum of furathiocarb oxidation pathways", "setting": "[2]; HLM32", "result": "3.7 ± 0.6 nmol (mg protein min)"}, {"measurement": "carbofuran pathway / oxidation pathways (CLint ratio)", "setting": "[2]; HLM32", "result": 30.6, "unit": "fold"}, {"measurement": "Km", "setting": "[2]; pH 7.4, HLM20, read-out: Km, sum of carbofuran metabolic pathway", "result": "63.2 ± 16.3", "unit": "µM"}, {"measurement": "Km", "setting": "[2]; pH 7.4, HLM20, read-out: Km, sum of furathiocarb oxidation pathways", "result": "343 ± 128", "unit": "µM"}, {"measurement": "Km", "setting": "[2]; pH 7.4, HLM21, read-out: Km, sum of carbofuran metabolic pathway", "result": "66.7 ± 20.6", "unit": "µM"}, {"measurement": "Km", "setting": "[2]; pH 7.4, HLM21, read-out: Km, sum of furathiocarb oxidation pathways", "result": "453 ± 215", "unit": "µM"}, {"measurement": "Km", "setting": "[2]; pH 7.4, HLM22, read-out: Km, sum of carbofuran metabolic pathway", "result": "71.8 ± 21.7", "unit": "µM"}, {"measurement": "Km", "setting": "[2]; pH 7.4, HLM23, read-out: Km, sum of carbofuran metabolic pathway", "result": "50 ± 14.1", "unit": "µM"}, {"measurement": "Km", "setting": "[2]; pH 7.4, HLM23, read-out: Km, sum of furathiocarb oxidation pathways", "result": "260 ± 117", "unit": "µM"}, {"measurement": "Km", "setting": "[2]; pH 7.4, HLM24, read-out: Km, sum of carbofuran metabolic pathway", "result": "54.3 ± 16.1", "unit": "µM"}, {"measurement": "Km", "setting": "[2]; pH 7.4, HLM24, read-out: Km, sum of furathiocarb oxidation pathways", "result": "410 ± 197", "unit": "µM"}, {"measurement": "Km", "setting": "[2]; pH 7.4, HLM28, read-out: Km, sum of carbofuran metabolic pathway", "result": "55.8 ± 18", "unit": "µM"}, {"measurement": "Km", "setting": "[2]; pH 7.4, HLM28, read-out: Km, sum of furathiocarb oxidation pathways", "result": "1710 ± 852", "unit": "µM"}, {"measurement": "Km", "setting": "[2]; pH 7.4, HLM29, read-out: Km, sum of carbofuran metabolic pathway", "result": "64.2 ± 18.9", "unit": "µM"}, {"measurement": "Km", "setting": "[2]; pH 7.4, HLM29, read-out: Km, sum of furathiocarb oxidation pathways", "result": "495 ± 237", "unit": "µM"}, {"measurement": "Km", "setting": "[2]; pH 7.4, HLM30, read-out: Km, sum of carbofuran metabolic pathway", "result": "25.9 ± 9.5", "unit": "µM"}, {"measurement": "Km", "setting": "[2]; pH 7.4, HLM30, read-out: Km, sum of furathiocarb oxidation pathways", "result": "456 ± 208", "unit": "µM"}, {"measurement": "Km", "setting": "[2]; pH 7.4, HLM31, read-out: Km, sum of carbofuran metabolic pathway", "result": "63.3 ± 13.4", "unit": "µM"}, {"measurement": "Km", "setting": "[2]; pH 7.4, HLM31, read-out: Km, sum of furathiocarb oxidation pathways", "result": "239 ± 79.5", "unit": "µM"}, {"measurement": "Km", "setting": "[2]; pH 7.4, HLM32, read-out: Km, sum of carbofuran metabolic pathway", "result": "38.8 ± 11.3", "unit": "µM"}, {"measurement": "Km", "setting": "[2]; pH 7.4, HLM32, read-out: Km, sum of furathiocarb oxidation pathways", "result": "280 ± 102", "unit": "µM"}, {"measurement": "Ratio carbofuran metabolic pathway / furathiocarb oxidation pathway", "setting": "[2]; range in 10-donor panel of hepatic microsomes", "result": "24- to 115 fold"}]}
